Measured values from patent publication US20090192071A1, “USE OF PHOTODYNAMIC THERAPY TO ENHANCE TREATMENT WITH IMMUNO-MODULATING AGENTS” (DUSA PHARMACEUTICALS, INC., priority 2004, published 2009).

Columns and labels:
Basal Cell Carcinoma = assay: Combination therapy (ALA photodynamic therapy plus imiquimod) in a patient with Basal Cell Carcinoma; assay type: in vivo; conditions: Example 3: ALA topical cream, red light several hours later, then a course of imiquimod
Protocol: A patient with a Basal Cell Carcinoma is administered ALA in the form of a topical cream, which is applied to the affected areas. Several hours after administration of the ALA, the patient is exposed to an activating red light. Subsequently, the patient is administered a course of imiquimod therapy.

[1] = Combination therapy (ALA photodynamic therapy plus imiquimod) in a patient with warts; assay type: in vivo; conditions: Example 7: ALA topical cream, white light several hours later, then reduced course of imiquimod
Protocol: A patient with warts is administered ALA in the form of a topical cream, which is applied to the affected area. Several hours after administration of the ALA, the patient is exposed to white light. Subsequently, the patient is administered a reduced course of imiquimod therapy.

[2] = Combination therapy (ALA photodynamic therapy plus alefacept) in patients with psoriasis; assay type: in vivo, patient; conditions: for alleviation of symptoms: then reduced course of alefacept
[3] = cited from earlier work

NCC(=O)CCC(=O)O [ALA, 5-Amino-4-oxopentanoic acid]
resolution of the cancerous lesion (Basal Cell Carcinoma): rapid and complete resolution of the cancerous lesion | alleviation of symptoms [1]: alleviation of symptoms soon after receiving the treatment | improvement of psoriasis ([2]; Example 1: several patients, topical ALA, then Intense Pulsed Light (IPL), then alefacept as normally done): almost immediate improvements | return of psoriatic symptoms after cessation of alefacept therapy ([2]; Example 2: topical ALA and blue light after a completed alefacept treatment cycle): less return of their psoriatic symptoms | alleviation of symptoms ([2]; Example 4: ALA topical cream, activating light several hours later): alleviation of symptoms soon after receiving the treatment | alleviation of symptoms ([2]; Example 5: ALA i.v. injection, 5 J/cm^2 of 417 nm blue light after one to three hours): alleviation of symptoms soon after receiving the treatment | alleviation of symptoms ([2]; Example 6: oral ALA, 10 J/cm^2 of 417 nm blue light after one to three hours): alleviation of symptoms soon after receiving the treatment | solubility in water [3]: water soluble
